According to patent US20230157290A1, “ALKENE-CONTAINING CARBOXYLATE COMPOUND AND USE THEREOF” (SHENYANG SINOCHEM AGROCHEMICALS R&D CO., LTD, priority 2019, published 2023):

Experiments:
Format in all cases: in vivo
Details in all cases: after emergence
[1] = system: zinnia; experiment: Herbicidal activity, post-emergence stem and leaf spray, greenhouse: zinnia control
Procedure: (§1) Seeds of broadleaf weeds (zinnia and piemarker) or grassy weeds (green bristlegrass and barnyard grass) were respectively sown in a paper cup having a diameter of 7 cm and containing nutrient soil; after sowing, the seeds were covered with 1 cm of soil, the soil was pressed and watered, and then the seeds were cultivated in a greenhouse according to a conventional method; and stems and leaves were sprayed after 2-3 leaf stage of the weeds.
(§2) After the original medicinal acetone was dissolved, the test requires to use 1‰ of Tween 80 to stand in running water to prepare the solution to be tested with a required concentration. According to the design dose of the test, spray treatment was carried out on a track-type crop sprayer (designed and produced by British Engineer Research Ltd.) (spray pressure is 1.95 kg/cm^2, spray volume is 500 L/hm^2 and track speed is 1.48 km/h). The test was repeated for three times. The test material was treated and then placed in an operation hall. The medicinal liquid was naturally dried in the shade, and then was placed in a greenhouse and managed according to the conventional method. The response of the weeds to the drug was observed and recorded. After treatment, the control effects of the test drug on the weeds were visually inspected regularly, expressed by 0-100%. “0” represents no control effect and “100%4” represents complete killing.
According to the above test method, part of the compounds of the formula I and KC1 are selected for activity test of controlling the zinnia.

[2] = system: barnyard grass; experiment: Herbicidal activity, post-emergence stem and leaf spray, greenhouse: barnyard grass control
Procedure: as §1, §2
According to the above test method, part of the compounds of the formula I and KC1 or KC2 are selected for activity test of controlling the barnyard grass.

[3] = system: green bristlegrass; experiment: Herbicidal activity, post-emergence stem and leaf spray, greenhouse: green bristlegrass control
Procedure: as §1, §2
According to the above test method, part of the compounds of the formula I and KC1 or KC2 are selected for activity test of controlling the green bristlegrass.

[4] = system: piemarker; experiment: Herbicidal activity, post-emergence stem and leaf spray, greenhouse: piemarker control
Procedure: as §1, §2
According to the above test method, part of the compounds of the formula and KC1 are selected for activity test of controlling the piemarker.

[5] = dose 600 g a.i./hm^2, visual, 0 = no control effect, 100% = complete killing

| SMILES | Zinnia control activity (control effect %) ([1]; dose 37.5 g a.i./hm^2) | Zinnia control activity (control effect %) ([1]; dose 150 g a.i./hm^2) | Zinnia control activity (control effect %) [1, 5] | Barnyard grass control activity (control effect %) ([2]; dose 37.5 g a.i./hm^2) | Barnyard grass control activity (control effect %) ([2]; dose 150 g a.i./hm^2) | Barnyard grass control activity (control effect %) ([2]; dose 600 g a.i./hm^2) | Green bristlegrass control activity (control effect %) ([3]; dose 37.5 g a.i./hm^2) | Green bristlegrass control activity (control effect %) ([3]; dose 150 g a.i./hm^2) | Green bristlegrass control activity (control effect %) ([3]; dose 600 g a.i./hm^2) | Piemarker control activity (control effect %) ([4]; dose 37.5 g a.i./hm^2) | Piemarker control activity (control effect %) ([4]; dose 150 g a.i./hm^2) | Piemarker control activity (control effect %) ([4]; dose 600 g a.i./hm^2) |
| --- | --- | --- | --- | --- | --- | --- | --- | --- | --- | --- | --- | --- |
| COCCOCc1c(S(C)(=O)=O)ccc(C(=O)c2c(C)nn(C)c2OC(=O)/C=C/c2ccc(-c3ccccc3)cc2)c1Cl [Compound 1-81] | 90% | 95% | 100% | 80% | 90% | 95% |  |  |  |  |  |  |
| Cc1nn(C)c(OC(=O)C2=CCCCC2)c1C(=O)c1ccc(S(C)(=O)=O)c(OCC2CCCO2)c1C (stereo not shown) [Compound 2-73] |  |  |  | 95% | 100% | 100% |  |  |  |  |  |  |
| Cc1c(C(=O)c2cnn(C)c2OC(=O)C2=CCCCC2)ccc(S(C)(=O)=O)c1C1=NOCC1 [Compound 2-121] |  |  |  |  |  |  | 80% | 90% | 98% |  |  |  |
| Cc1nn(C)c(OC(=O)/C=C/c2ccccc2)c1C(=O)c1ccc([N+](=O)[O-])cc1Cl [KC1, reference compound] | 0% | 0% | 0% | 0% | 0% | 0% | 10% | 10% | 10% | 20% | 70% | 100% |
| Cc1nn(C)c(OC(=O)/C=C/c2ccccc2)c1C(=O)c1ccc(C(F)(F)F)cc1S(C)(=O)=O [Compound 1-1] |  |  |  |  |  |  |  |  |  | 90% | 95% | 100% |
| Cc1c(S(C)(=O)=O)ccc(C(=O)c2cnn(C)c2OC(=O)/C=C/c2ccc3c(c2)OCO3)c1Cl [Compound 1-42] | 100% | 100% | 100% | 80% | 95% | 100% |  |  |  | 90% | 95% | 100% |
| COCCOc1c(S(C)(=O)=O)ccc(C(=O)c2cnn(C)c2OC(=O)C2=CCCCC2)c1C [Compound 2-67] |  |  |  | 90% | 100% | 100% |  |  |  |  |  |  |
| Cc1c(C(=O)c2cnn(C)c2OC(=O)/C=C/c2ccccc2)ccc(S(C)(=O)=O)c1C1=NOCC1 [Compound 1-292] |  |  |  | 90% | 95% | 100% | 90% | 90% | 95% | 90% | 90% | 95% |
| Cc1nn(C)c(OC(=O)C2=CCCCC2)c1C(=O)c1ccc(S(C)(=O)=O)c(OCC(F)(F)F)c1C [Compound 2-37] |  |  |  | 95% | 100% | 100% |  |  |  |  |  |  |
| COCCOCc1c(S(C)(=O)=O)ccc(C(=O)c2c(C)nn(C)c2OC(=O)/C=C/c2ccc3c(c2)OCO3)c1Cl [Compound 1-82] |  |  |  | 90% | 95% | 100% |  |  |  |  |  |  |
| Cn1nc(C2CC2)c(C(=O)c2ccc(C(F)(F)F)cc2S(C)(=O)=O)c1OC(=O)C1=CCCCC1 [KC2, reference compound] |  |  |  | 60% | 90% |  | 30% | 60% |  |  |  |  |
| COCCOc1c(S(C)(=O)=O)ccc(C(=O)c2c(C)nn(C)c2OC(=O)/C=C/c2ccccc2)c1C [Compound 1-259] |  |  |  | 100% | 100% |  | 100% | 100% |  | 100% | 100% |  |
| CCOc1c(S(C)(=O)=O)ccc(C(=O)c2c(C)nn(C)c2OC(=O)/C=C/c2ccccc2)c1C [Compound 1-280] |  |  |  | 85% | 95% | 100% | 80% | 90% | 100% |  |  |  |
| Cc1c(C(=O)c2cnn(C)c2OC(=O)C2=CCCC2)ccc(S(C)(=O)=O)c1C1=NOCC1 [Compound 2-123] |  |  |  | 100% | 100% | 100% | 90% | 100% | 100% |  |  |  |
